The nature of the data set: Effective magnetic moment in solution from magnetic susceptibility (NMR). The data set is classed as physicochemical. The conditions noted are these: for μeff: 5 mM Co^II complex in D2O; for magnetic moment: 25° C. in D2O. How it is done: The effective magnetic moment (μeff) was calculated by using a previously known method. 5 mM Co^II complex and 5% t-butanol by volume was placed in a NMR insert while the outer NMR tube contained 5% by volume t-butanol in D2O. The μeff was calculated at 298 K (T) and monitored over a period of 72 hours using the following approach.
The mass susceptibility of solute (χg) was calculated by obtaining the observed frequency shift of the reference (Δf) in Hz, the spectrometer frequency (f) in Hz, the mass of the substance per cm^3 of solution (m), and the mass susceptibility of solvent D2O (χ0=−0.6466×10^−6 cm^3/g). The last term is neglected due to the minimal contribution to mass susceptibility of solute. The molar susceptibility (χm) is the product of χg multiplied by the molecular weight of the Co^II complex.
The effective magnetic moment was calculated by using a previously known method. In a typical experiment, oxygen-free solution of 8-20 mM [Co(TPT)]^2+ in deuterium oxide, pD 7.0, containing 5% tert-butanol by volume was placed in an NMR tube, while a reference solution of 5% tert-butanol (v/v) in deuterium oxide, pD 7.0, was placed into NMR tube insert. All solutions of [Co(TPT)]^2+ were purged with argon and kept in the absence of air. The effective magnetic moment (μeff) was calculated at 298 K (T) using the following equations 7-8. In these equations the mass susceptibility of solute (χg) was calculated by obtaining the observed frequency shift of the reference (Δf) in Hz, the spectrometer frequency (f) in Hz, the mass of the substance per cm^3 of the solution (m), and the mass susceptibility of deuterium oxide (χ0=−0.6466×10^−6 cm^3/g). The last term in eq. SI is neglected due to the minimal contribution to mass susceptibility of solute. The molar susceptibility (χm) is the product of χg multiplied by the molecular weight of the [Co(TPT)]Cl2 complex. Reported value of the effective magnetic moment was obtained by averaging of three independent experiments. χg=(−3Δf)/(4πfm)+χ0+[χ0(d0−ds)]/m eq. 7 μeff=2.84(χmT)^1/2 eq. 8

Consider `NC(=O)CN1CCOCCOCCN(CC(N)=O)CCOCC1.[Co+2]` [[Co(NOPE)]^2+], for which the μeff turned out to be 4.1 µB and the magnetic moment worked out at 4.1 μB.

On to `NC(=O)CN1CCCN(CC(N)=O)CCN(CC(N)=O)CCCN(CC(N)=O)CC1.[Co+2]` [[Co(CCRM)]^2+], for which the μeff came to 4.6 µB and the magnetic moment was determined as 4.6 μB.

The compound `NC(=O)CN1CCN(CC(N)=O)CCN(CC(N)=O)CCN(CC(N)=O)CC1.[Co+2]` [[Co(TCMC)]^2+] returned a μeff of 4.5 µB and a magnetic moment of 4.5 μB.

For `NC(=O)CN1CCN(CC(N)=O)CCN(CC(N)=O)CC1.[Co+2]` [[Co(TCMT)]^2+], the μeff amounted to 5.2 µB and the magnetic moment was determined as 5.2 μB.
